Data as given in patent publication US20250353821A1, “BENZENE SULFONAMIDE THIAZOLE COMPOUNDS AND THEIR USE FOR THE TREATMENT OF CANCERS” (INSERM (INSTITUT NATIONAL DE LA SANTÉ ET DE LA RECHERCHE …, priority 2021, published 2025).
Values after ≈ are worked out from the molar mass of the structure shown.

What was measured:
[1] = test system: A375 melanoma cells; test: Cell viability by cell counting, trypan blue exclusion method; type: cell-based; settings: Homo sapiens, A-375, 48 h, percentage of cells alive relative to negative control DMSO (100%)
[2] = test system: normal human melanocytes (MHN); test: In vitro toxicity test on normal human melanocytes, 48 h; type: cell-based; settings: concentration 10 times higher than its IC50, FIG. 2
[3] = test system: Normal human fibroblasts (FHN); test: In vitro toxicity test on normal human fibroblasts, 48 h; type: cell-based; settings: concentration 10 times higher than its IC50, FIG. 2
[4] = Aqueous solubility; type: physicochemical; settings: aqueous medium (not further specified), read-out: Solublity
[5] = test system: CHOP in Kyse 70 cells; test: CHOP induction (ER stress marker), western blot, Kyse70; type: cell-based, human; design: key: −: No induction of CHOP; +: Induction of CHOP; ++: Significant induction of CHOP; +++: Strong induction of CHOP; settings: Kyse70 (serum free), 24 h
[6] = test system: A375 melanoma cells; test: IC50 determination in A375 cells, blue trypan exclusion; type: cell-based, human; settings: Homo sapiens, A-375; A375, serum free, 24 h
[7] = Pharmacokinetics in mice (half-life, AUC IV, AUC PO); type: in vivo; settings: for half-life: mouse, in vivo, 1 mg/kg, head prints both IV and PO administration 1 mpk, read-out: T½ IV (min) (PO administration 1 mpk)
[8] = test system: CHOP in A375 melanoma cells; test: CHOP induction (ER stress marker), western blot, A375; type: cell-based, human; design: key: −: No induction of CHOP; +: Induction of CHOP; ++: Significant induction of CHOP; +++: Strong induction of CHOP; settings: A375 (serum free), 24 h
[9] = test system: CHOP in KATO III cells; test: CHOP induction (ER stress marker), western blot, Kato III; type: cell-based, human; design: key: −: No induction of CHOP; +: Induction of CHOP; ++: Significant induction of CHOP; +++: Strong induction of CHOP; settings: Kato III (1% SVF), 24 or 48 h
[10] = test system: CHOP in SH10TC cells; test: CHOP induction (ER stress marker), western blot, SH10TC; type: cell-based, human; design: key: −: No induction of CHOP; +: Induction of CHOP; ++: Significant induction of CHOP; +++: Strong induction of CHOP; settings: SH10TC (serum free), 24 or 48 h
[11] = test system: NCI-60 Human Tumor Cell Lines; test: DTP-NCI-60 Human Tumor Cell Lines screen, one-dose; type: cell-based; settings: growth relative to no-drug control and time zero, 100 = no inhibition, 0 = no net growth, negative = lethality
[12] = Chemical stability in PBS/DMSO and aqueous HCl; type: physicochemical; settings: 24 h

SMILES | solubility [4] [µM] | IC50 [6] [µM] | Induction of CHOP in comparison to control condition, Kyse70 [5] | Induction of CHOP in comparison to control condition, A375 [8] | Induction of CHOP in comparison to control condition, Kato III [9] | Induction of CHOP in comparison to control condition, SH10TC [10] | also measured
CC(=O)NCCCCCC(=O)Nc1nc(-c2cccc(NS(=O)(=O)c3cccc4c(N(C)C)cccc34)c2)cs1 [PB628, 6-acetamido-N-(4-(3-((5-(dimethylamino)naphthalene)-1-sulfonamido)phenyl)thiazol-2-yl)hexanamide] |  |  |  |  |  |  | viability at 5 µM [1]: 25.2 ± 6.1%; viability at 10 µM [1]: 12.5 ± 6.7%; toxicity in normal human melanocytes [2]: no toxicity; toxicity in normal human fibroblasts [3]: no toxicity
CN(C)c1cccc2c(S(=O)(=O)Nc3cccc(-c4csc(NC(=O)CN5CCN(CCO)CC5)n4)c3)cccc12 [PB640, N-(4-(3-((5-(dimethylamino)naphthalene)-1-sulfonamido)phenyl)thiazol-2-yl)-2-(4-(2-hydroxyethyl)piperazin-1-yl)acetamide] | 4.2 ± 0.4 (≈ 2.5 µg/mL) |  |  |  |  |  | viability at 1 µM [1]: 54.2 ± 5.9%; viability at 5 µM [1]: 67 ± 10.6%; viability at 10 µM [1]: 0%
CN(C)c1cccc2c(S(=O)(=O)Nc3cccc(-c4csc(NC(=O)CNCCO)n4)c3)cccc12 [PB643, N-(4-(3-((5-(dimethylamino)naphthalene)-1-sulfonamido)phenyl)thiazol-2-yl)-2-((2-hydroxyethyl)amino)acetamide] | 3 ± 1 (≈ 1.58 µg/mL) |  |  |  |  |  | viability at 1 µM [1]: 108 ± 11.8%; viability at 5 µM [1]: 29.8 ± 6.5%; viability at 10 µM [1]: 0%
CN(C)c1cccc2c(S(=O)(=O)Nc3cccc(-c4csc(NC(=O)CNCCS(=O)(=O)O)n4)c3)cccc12 [PB654, 2-((2-((4-(3-((5-(dimethylamino)naphthalene)-1-sulfonamido)phenyl)thiazol-2-yl)amino)-2-oxoethyl)amino)ethane-1-sulfonic] | 88 ± 3 (≈ 51.9 µg/mL) |  |  |  |  |  | viability at 5 µM [1]: 89.4 ± 6.5%; viability at 10 µM [1]: 70 ± 13.8%
CCCCCc1ccc(S(=O)(=O)Nc2cccc(-c3csc(NC(=O)CNCCN(C)C)n3)c2)cc1 [PB693, 2-((2-(dimethylamino)ethyl)amino)-N-(4-(3-((4-pentylphenyl)sulfonamido)phenyl)thiazol-2-yl)acetamide] |  | 1 | + | ++ | − | − | 
CCCCCc1ccc(S(=O)(=O)Nc2cccc(-c3csc(NC(=O)CCCCCN4CCN(C)CC4)n3)c2)cc1 [PB694, 6-(4-methylpiperazin-1-yl)-N-(4-(3-((4-pentylphenyl)sulfonamido)phenyl)thiazol-2-yl)hexanamide] |  | 0.75 | ++ | + | + | ++ | Mean growth inhibition value (data from DTP-NCI60) [11]: 37.26
CCCCCc1ccc(S(=O)(=O)Nc2cccc(-c3csc(NCCN4CCN(C)CC4)n3)c2)cc1 [PB704, N-(3-(2-((2-(4-methylpiperazin-1-yl)ethyl)amino)thiazol-4-yl)phenyl)-4-pentylbenzenesulfonamide] | 1.4 ± 0.3 (≈ 0.739 µg/mL) | 1.2 | + | ++ | + | − | Mean growth inhibition value (data from DTP-NCI60) [11]: 55.54; AUC IV (min · ng/mL/mpk) [7]: 197707 min · ng/mL/mpk; AUC PO (min · ng/mL/mpk) [7]: 4435 min · ng/mL/mpk; chemical stability ([12]; PBS (pH 7.4), 20% DMSO): full stability; chemical stability ([12]; PBS (pH 7.4), 20% DMSO, 80° C.): full stability; chemical stability ([12]; aqueous HCl (0.1M)): full stability
CCCCCc1ccc(S(=O)(=O)N(C(C)=O)c2cccc(-c3csc(N(CCN4CCN(C)CC4)C(C)=O)n3)c2)cc1 [PB705, N-(2-(4-methylpiperazin-1-yl)ethyl)-N-(4-(3-(N-((4-pentylphenyl)sulfonyl)acetamido)phenyl)thiazol-2-yl)acetamide] |  | 1.3 |  | ++ | ++ |  | Mean growth inhibition value (data from DTP-NCI60) [11]: 5.64

Further lines, with some results ahead:

solubility [4] [µM] | IC50 [6] [µM] | SMILES | Induction of CHOP in comparison to control condition, Kyse70 [5] | Induction of CHOP in comparison to control condition, A375 [8] | Induction of CHOP in comparison to control condition, Kato III [9] | Induction of CHOP in comparison to control condition, SH10TC [10] | also measured
17 ± 7 (≈ 9.21 µg/mL) | 1 | CCCCCc1ccc(S(=O)(=O)Nc2cccc(-c3csc(NC(=O)CN4CCN(C)CC4)n3)c2)cc1 [PB688, 2-(4-methylpiperazin-1-yl)-N-(4-(3-((4-pentylphenyl)sulfonamido)phenyl)thiazol-2 yl)acetamide] | +++ | +++ | + | ++ | AUC IV (min · ng/mL/mpk) [7]: 112348 min · ng/mL/mpk; AUC PO (min · ng/mL/mpk) [7]: 3000 min · ng/mL/mpk; half-life [7]: 76 min
 | 1.3 | CCCCCc1ccc(S(=O)(=O)Nc2cccc(-c3csc(NC(=O)CN4CCN(CCO)CC4)n3)c2)cc1 [PB689, 2-(4-(2-hydroxyethyl)piperazin-1-yl)-N-(4-(3-((4-pentylphenyl)sulfonamido)phenyl)thiazol-2-yl)acetamide] | + | + | ++ | +++ | half-life [7]: 110 min
 | 1.7 | CCCCCc1ccc(S(=O)(=O)Nc2cc(-c3csc(NC(=O)CN4CCN(C)CC4)n3)ccc2OC)cc1 [PB691, N-(4-(4-methoxy-3-((4-pentylphenyl)sulfonamido)phenyl)thiazol-2-yl)-2-(4-methylpiperazin-1-yl)acetamide] | ++ | + | + | − | AUC PO (min · ng/mL/mpk) [7]: 6266 min · ng/mL/mpk; half-life [7]: 77 min
7 ± 5 (≈ 4.21 µg/mL) | 1.6 | CCCCCc1ccc(S(=O)(=O)Nc2cc(-c3csc(NC(=O)CN4CCN(CCO)CC4)n3)ccc2OC)cc1 [PB692, 2-(4-(2-hydroxyethyl)piperazin-1-yl)-N-(4-(4-methoxy-3-((4-pentylphenyl)sulfonamido)phenyl)thiazol-2-yl)acetamide] | + | + | + | + | Mean growth inhibition value (data from DTP-NCI60) [11]: 23.99; AUC IV (min · ng/mL/mpk) [7]: 488474 min · ng/mL/mpk; AUC PO (min · ng/mL/mpk) [7]: 3978 min · ng/mL/mpk
 | 0.6 | CCCCCc1ccc(S(=O)(=O)Nc2cccc(-c3csc(NC(=O)CCCCCN4CCN(CCO)CC4)n3)c2)cc1 [PB695, 6-(4-(2-hydroxyethyl)piperazin-1-yl)-N-(4-(3-((4-pentylphenyl)sulfonamido)phenyl)thiazol-2-yl)hexanamide] | + | + | − | ++ | 
49 ± 16 (≈ 31.4 µg/mL) | 0.9 | CCCCCc1ccc(S(=O)(=O)Nc2cc(-c3csc(NC(=O)CN4CCN(C)CC4)n3)ccc2N2CCN(C)CC2)cc1 [PB696, 2-(4-methylpiperazin-1-yl)-N-(4-(4-(4-methylpiperazin-1-yl)-3-((4-pentylphenyl)sulfonamido)phenyl)thiazol-2-yl)acetamide] | − | + | + | ++ | half-life [7]: 312 min
